# Measurements taken from patent publication US20230028293A1, “MULTIPLE MYELOMA COMBINATION THERAPIES BASED ON PROTEIN TRANSLATION INHIBITORS AND IMMUNOMODULATORS” (The Regents of the University of Colorado, a body corporate, priority 2019, published 2023).
# “And” between values parts separate entries of the source, which are not always exact repeats. Equal entries are not always repeated.
# Legend:
# [1] = test system: U266, H929, MM1.S, MM1.R and RPMI-8226 MM cell lines; assay: MM cell line proliferation / cytotoxicity assay (CellTiter-Glo or MTS); format: cell-based; conditions: range over five MM cell lines, 96 h incubation; read-out: EC50 of inhibition of cell proliferation
# Procedure: Omacetaxine was tested in MM cell lines in vitro and in MM patient bone marrow aspirates ex vivo. The reported cytotoxicity of omacetaxine was verified in cell culture using the U266, H929, MM1.S, MM1.R and RPMI-8226 MM cell lines. […] In a timecourse study, omacetaxine-mediated induction of apoptosis started at 2 h, and cell death began after 24 h (FIGS. 1B, 1C, and 2A).
# (§1) Either CellTiter-Glo Luminescent Cell Viability or CellTiter 96 AQueous MTS Cell Proliferation assay (Promega, Madison Wis.) were used to generate dose response curves of myeloma cell line proliferation treated with various anti-myeloma agents. Working solutions of CellTiter-Glo or CellTiter AQueous reagent were prepared per manufacturer instructions. Cells were combined with drug of interest at a concentration of 50,000 cells/well and incubated in 96-well culture plates at 37° C. for 96 h. After the incubation, the viability or proliferation results were obtained via Vmax Kinetic Microplate Reader (Molecular Devices, Sunnyvale Calif.). Cell line toxicity was also measured using high throughput flow cytometry.
# MCL1 = assay: Quantitative intracellular flow cytometry of MCL1; format: cell-based; conditions: 50 nM, 6 h
# Procedure: (§2) Quantitative flow cytometry was used to measure MCL1 and BCL2 densities per cell. Anti-MCL1 and anti-BCL2 antibodies were labeled with Alexa Fluor 647 (Molecular Probes/life Technologies) according to manufacturer's instructions. Intracellular staining of MCL1 and BCL2 was conducted following permeabilization with the Cytofix/Cytoperm kit (BD). Mean fluorescence intensity was converted to molecules of equivalent soluble fluorochrome (MESF) by generating a standard curve with Quantum™ beads (Bangs Labs, Fishers, Ind.). The fluorophore-to-antibody ratio of the labeled antibodies was determined using Simply Cellular® anti-mouse IgG beads (Bangs Labs). Finally, conversion of MESF to cell surface antigen density was calculated by dividing by the fluorophore-to-antibody ratio.
# MM cell lines = assay: Two-drug combination matrix in MM cell lines, ZIP synergy; format: cell-based
# Procedure: In this example, possible candidates for use in combination with omacetaxine were examined, focusing on those that are currently clinically available. Omacetaxine was applies in combination with various anti-myeloma agents to MM cell lines Amo-1, L363, and U266 in two-drug combination matrices, with cell viability being measured after 96 h incubation. […] The […] for synergy of omacetaxine with Len and Pom were 13.89 and 11.24, respectively, with a broad range of concentrations showing a productive interaction (FIGS. 6B and 6D).
# as §1
# (§3) Drug combination studies were set up using a full matrix design with myeloma cell lines or primary samples. Synergy was calculated using ZIP delta score via the SnergyFinder online tool (synergyfinder.fimm.fi). Combination index values were calculated using the CompuSyn software (ComboSyn Inc).
# MM1.S cells [2] = assay: Whole cell proteomics of treated MM cells; format: cell-based; conditions: omacetaxine 4 h, pomalidomide 24 h, staggered combination
# Procedure: Whole cell proteomics of MM cells treated with the omacetaxine/pomalidomide combination were compared to single agent treatments at a timepoint before substantial apoptosis or cell death began. Although omacetaxine is rapidly cytotoxic to MM cells, the cytotoxicity of pomalidomide occurs after a longer delay, with apoptosis and cell death beginning at 24 h (FIG. 10A). […] For proteomics, MM1.S cells were treated in triplicate with omacetaxine for 4 h, pomalidomide for 24 h, or the staggered combination treatment and compared to untreated controls.
# Cells were lysed with RIPA buffer (Thermo Fisher Scientific) and digested according to the FASP protocol. Recovered peptides were dried, desalted, and concentrated on Thermo Scientific Pierce C18 Tips. Cell lysates were analyzed using an Orbitrap Fusion mass spectrometer connected to an EASY-nLC 1200 system (Thermo Fisher Scientific) with a nanoelectrospray ion source. Data was acquired using the Xcaliburm (version 4.1) software. MS/MS spectra were extracted, and Proteome Discoverer Software (ver. 2.1.0.62) was used to convert the raw data into mgf files. The files were then searched against a human database using an in-house Mascot server (Version 2.6, Matrix Science). Scaffold (version 4.8, Proteome Software, Portland, Oreg.) was used to validate MS/MS based peptide and protein identifications. […]
# [3] = test system: IMiD-resistant relapsed MM patient sample; assay: Two-drug combination matrix in primary MM patient sample, ZIP synergy; format: cell-based, human
# Procedure: as §3
# [4] = test system: MM cell lines (H929, MM.1S, U266); assay: Seahorse glycolysis stress test (ECAR); format: cell-based; conditions: after 4 h
# Procedure: MM cell lines were incubated with pomalidomide for 24 h, omacetaxine for 4 h, or in staggered combination. The cells were washed and resuspended in Agilent Seahorse XF DMEM Medium, pH 7.4 (Agilent Technologies, Santa Clara, Calif.). Glycolytic flux, extracellular acidification rate (ECAR) was measured on a Seahorse XFe96 Analyzer using the Seahorse XF Glycolysis Stress Test Kit according to manufacture instructions (Agilent Technologies).
# MM1.S cells [5] = assay: Timecourse of apoptosis and cell death by Annexin V and DAPI flow cytometry; format: cell-based
# Description: FIG. 2A depicts the timecourse of induction of apoptosis and cell death by omacetaxine in MM1.S cells as measured by Annexin V and DAPI staining by flow cytometry.
# FIG. 10A depicts the timecourse of induction of apoptosis and cell death by pomalidomide in MM1.S cells as measured by annexin V and DAPI staining by flow cytometry.
# BCL2 = assay: Quantitative intracellular flow cytometry of BCL2; format: cell-based; conditions: 50 nM, 6 h
# Procedure: as §2
# [6] = test system: protein translation in MM cell lines and primary MM cells; assay: OP-Puro protein translation assay in vitro; format: cell-based
# Procedure: To examine whether myeloma cells depend on inherently high protein synthesis, the O-Propargyl-puromycin (OP-Puro) assay was used to measure the rate of amino-acid incorporation into translating ribosomes by flow cytometry.
# Protein synthesis levels were determined in vitro utilizing the puromycin analog O-propargyl-puromycin (OP-Puro) in the protein synthesis assay kit (Cayman Chemical) according to manufacturer instructions. For in vivo protein synthesis, engrafted NSG mice were injected IP with 500 μg puromycin (Gibco), then euthanized after 1.5 h, marrow was flushed, and cells stained with anti-puromycin antibody (12D10, Alexa-488, Millipore Sigma), followed by flow cytometry.
compound,measurement,setting,value
"COC(=O)C[C@](O)(CCCC(C)(C)O)C(=O)O[C@@H]1C(OC)=C[C@]23CCCN2CCc2cc4c(cc2[C@H]13)OCO4 [omacetaxine, Omacetaxine mepesuccinate]",EC50,[1],15 to 35 nM
same,MCL1 expression in myeloma cells,MCL1,rapidly downregulated
same,combination with dexamethasone versus single agent omacetaxine,MM cell lines; L363 and U266 cells,decreased activity
same,synergy with lenalidomide (cell viability),"MM cell lines; combination with Len, 96 h",synergistic in all cell lines tested
same,synergy with pomalidomide (cell viability),"MM cell lines; omacetaxine combined with Pom, 96 h",synergistic in all cell lines tested
same,"synergy with dexamethasone, over cell lines tested",MM cell lines; three MM cell lines,synergistic in only ⅓ MM cell lines tested
same,proteins among the most downregulated versus untreated controls,MM1.S cells [2],IGL1 and JCHAIN
same,effect of combination with Pom on IMiD sensitivity of patient MM cells,[3]; IMiD-resistant relapsed patient sample,re-sensitized
same,ZIP δ-score for synergy with Pom in patient sample,[3]; IMiD-resistant relapsed patient sample HTB-576,22.68 and 22.7
same,"effect on metabolism of myeloma cell lines (Seahorse, ECAR)",[4],shut down metabolism
same,time at which cell death began,MM1.S cells [5],24 h
same,time at which induction of apoptosis started,MM1.S cells [5],2 h
same,Bcl-2 level in myeloma cells,BCL2,does not decrease
same,translation in primary MM samples after treatment,"[6]; 50 nM, 2.5 h, 14 primary samples, to near MNC levels",significantly reduced
same,EC50,"[6]; Homo sapiens, NCI-H929, 2.5 h, H929 MM cell line and primary patient MM cells, read-out: EC50 of inhibition of protein translation",9 nM
same,ability to inhibit translation in myeloma cell lines,"[6]; omacetaxine 50 nM 2.5 h, bortezomib 6 h, 24 h, 48 h",observed across all myeloma cell lines tested
